In patent US9499550B2 (BRISTOL-MYERS SQUIBB COMPANY, priority 2012, dated 2016):
Where two headings read alike, the source gives them in different places.

What was measured:
[1] = system: HCV genotype 1a (H77 strain) replicon in HUH-7 cells; assay: HCV replicon luciferase reporter assay, genotype 1a; assay type: cell-based; details: Hepatitis C virus, Huh-7, 72 h, HCV genotype 1a replicon luciferase assay, 3 days incubation, range class, read-out: LE_1a (EC50, range)
Method in brief: (§1)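 Replicon inhibition for both genotypes was measured as Renilla luciferase signal (EnduRen, 7.5 μM final, 2 h) after 3-day, 37° C exposure of replicon-bearing HUH-7 cells in 4% FCS DMEM, 0.5% DMSO. The 1b construct carries S1179I; the 1a H77 construct carries P1496L and S2204I. Twenty-point, 3-fold dilutions were fitted four-parametrically for EC50, and CC50 was taken from multiplexed Cell Titer-Blue.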

[2] = system: HCV genotype 1b (Con1) replicon in HUH-7 cells; assay: HCV replicon luciferase reporter assay, genotype 1b; assay type: cell-based; details: Hepatitis C virus, Huh-7, 72 h, HCV genotype 1b replicon luciferase assay, 3 days incubation, range class, read-out: LE_1b (EC50, range)
Method in brief: as §1

| Compound | EC50 ([1]; GETYPE1A) [nM] | EC50 ([2]; GETYPE1B) [nM] | EC50 [1] [nM] | EC50 [2] [nM] |
| --- | --- | --- | --- | --- |
| COc1ccc2c(O[C@@H]3C[C@H]4C(=O)N[C@]5(C(=O)NS(=O)(=O)C6(CF)CC6)C[C@H]5/C=C\CC[C@@H](C)C[C@@H](C)[C@H](NC(=O)OC(C)(C)C(C)(F)F)C(=O)N4C3)nc(OC)cc2c1 [Compound 1128] | < 5.46 | < 5.46 | – | – |
| COc1ccc2c(O[C@@H]3C[C@H]4C(=O)N[C@]5(C(=O)NS(=O)(=O)C6(CF)CC6)C[C@H]5/C=C\CC[C@@H](C)C[C@@H](C)[C@H](NC(=O)OC5COC5)C(=O)N4C3)nc(OC)cc2c1 [Compound 1129, oxetan-3-yl ((2R,6S,7R,9R,13aS,14aR,16aS,Z)-2-((3,6-dimethoxyisoquinolin-1-yl)oxy)-14a-(((1-(fluoromethyl)cyclopropyl)sulfonyl)carbamoyl)-7,9-dimethyl-5,16-dioxo-1,2,3,5,6,7,8,9,10,11,13a,14,14a,15,16,16a-hexadecahydrocyclopropa[e]pyrrolo[1,2-a][1,4]diazacyclopentadecin-6-yl)carbamate] | – | – | < 5.46 | < 5.46 |
| COc1ccc2c(O[C@@H]3C[C@H]4C(=O)N[C@]5(C(=O)NS(=O)(=O)C6(C)CC6)C[C@H]5/C=C\CC[C@H](C)C[C@@H](C)[C@H](NC(=O)OC(C)(C)C)C(=O)N4C3)nc(OC)cc2c1 [Compound 1130, tert-butyl ((2R,6S,7R,9S,13aS,14aR,16aS,Z)-2-((3,6-dimethoxyisoquinolin-1-yl)oxy)-7,9-dimethyl-14a-(((1-methylcyclopropyl)sulfonyl)carbamoyl)-5,16-dioxo-1,2,3,5,6,7,8,9,10,11,13a,14,14a,15,16,16a-hexadecahydrocyclopropa[e]pyrrolo[1,2-a][1,4]diazacyclopentadecin-6-yl)carbamate] | – | – | < 5.46 | < 5.46 |
| COc1ccc2c(O[C@@H]3C[C@H]4C(=O)N[C@]5(C(=O)NS(=O)(=O)C6(C)CC6)C[C@H]5/C=C\CC[C@@H](C)C[C@@H](C)[C@H](NC(=O)OC(C)(C)C)C(=O)N4C3)nc(OC)cc2c1 [Compound 1131, tert-butyl ((2R,6S,7R,9R,13aS,14aR,16aS,Z)-2-((3,6-dimethoxyisoquinolin-1-yl)oxy)-7,9-dimethyl-14a-(((1-methylcyclopropyl)sulfonyl)carbamoyl)-5,16-dioxo-1,2,3,5,6,7,8,9,10,11,13a,14,14a,15,16,16a-hexadecahydrocyclopropa[e]pyrrolo[1,2-a][1,4]diazacyclopentadecin-6-yl)carbamate] | – | – | < 5.46 | < 5.46 |
| COc1ccc2c(O[C@@H]3C[C@H]4C(=O)N[C@]5(C(=O)NS(=O)(=O)C6(C)CC6)C[C@H]5/C=C\CC[C@H](C)C[C@@H](C)[C@H](NC(=O)OC(C)(C)C(F)(F)F)C(=O)N4C3)nc(OC)cc2c1 [Compound 1132, 1,1,1-trifluoro-2-methylpropan-2-yl((2R,6S,7R,9S,13aS,14aR,16aS,Z)-2-((3,6-dimethoxyisoquinolin-1-yl)oxy)-7,9-dimethyl-14a-(((1-methylcyclopropyl)sulfonyl)carbamoyl)-5,16-dioxo-1,2,3,5,6,7,8,9,10,11,13a,14,14a,15,16,16a-hexadecahydrocyclopropa[e]pyrrolo[1,2-a][1,4]diazacyclopentadecin-6-yl)carbamate] | – | – | < 5.46 | < 5.46 |
| COc1ccc2c(O[C@@H]3C[C@H]4C(=O)N[C@]5(C(=O)NS(=O)(=O)C6(C)CC6)C[C@H]5/C=C\CC[C@@H](C)C[C@@H](C)[C@H](NC(=O)OC(C)(C)C(F)(F)F)C(=O)N4C3)nc(OC)cc2c1 [Compound 1133, 1,1,1-trifluoro-2-methylpropan-2-yl((2R,6S,7R,9R,13aS,14aR,16aS,Z)-2-((3,6-dimethoxyisoquinolin-1-yl)oxy)-7,9-dimethyl-14a-(((1-methylcyclopropyl)sulfonyl)carbamoyl)-5,16-dioxo-1,2,3,5,6,7,8,9,10,11,13a,14,14a,15,16,16a-hexadecahydrocyclopropa[e]pyrrolo[1,2-a][1,4]diazacyclopentadecin-6-yl)carbamate] | – | – | < 5.46 | < 5.46 |
| CCN(C)c1cc2cc(OC)ccc2c(O[C@@H]2C[C@H]3C(=O)N[C@]4(C(=O)NS(=O)(=O)C5(CF)CC5)C[C@H]4/C=C\CC[C@H](C)C[C@@H](C)[C@H](NC(=O)OC(C)(C)C)C(=O)N3C2)n1 [Compound 1134, tert-butyl ((2R,6S,7R,9S,13aS,14aR,16aS,Z)-2-((3-(ethyl(methyl)amino)-6-methoxyisoquinolin-1-yl)oxy)-14a-(((1-(fluoromethyl)cyclopropyl)sulfonyl)carbamoyl)-7,9-dimethyl-5,16-dioxo-1,2,3,5,6,7,8,9,10,11,13a,14,14a,15,16,16a-hexadecahydrocyclopropa[e]pyrrolo[1,2-a][1,4]diazacyclopentadecin-6-yl)carbamate] | – | – | > 87.4 | > 87.4 |
| CCN(C)c1cc2cc(OC)ccc2c(O[C@@H]2C[C@H]3C(=O)N[C@]4(C(=O)NS(=O)(=O)C5(CF)CC5)C[C@H]4/C=C\CC[C@@H](C)C[C@@H](C)[C@H](NC(=O)OC(C)(C)C)C(=O)N3C2)n1 [Compound 1135, tert-butyl ((2R,6S,7R,9R,13aS,14aR,16aS,Z)-2-((3-(ethyl(methyl)amino)-6-methoxyisoquinolin-1-yl)oxy)-14a-(((1-(fluoromethyl)cyclopropyl)sulfonyl)carbamoyl)-7,9-dimethyl-5,16-dioxo-1,2,3,5,6,7,8,9,10,11,13a,14,14a,15,16,16a-hexadecahydrocyclopropa[e]pyrrolo[1,2-a][1,4]diazacyclopentadecin-6-yl)carbamate] | – | – | 4.82 to 103 | < 5.46 |
| CCN(C)c1cc2cc(OC)ccc2c(O[C@@H]2C[C@H]3C(=O)N[C@]4(C(=O)NS(=O)(=O)C5(CF)CC5)C[C@H]4/C=C\CC[C@H](C)C[C@@H](C)[C@H](NC(=O)OC(C)(C)C(F)(F)F)C(=O)N3C2)n1 [Compound 1136, 1,1,1-trifluoro-2-methylpropan-2-yl((2R,6S,7R,9S,13aS,14aR,16aS,Z)-2-((3-(ethyl(methyl)amino)-6-methoxyisoquinolin-1-yl)oxy)-14a-(((1-(fluoromethyl)cyclopropyl)sulfonyl)carbamoyl)-7,9-dimethyl-5,16-dioxo-1,2,3,5,6,7,8,9,10,11,13a,14,14a,15,16,16a-hexadecahydrocyclopropa[e]pyrrolo[1,2-a][1,4]diazacyclopentadecin-6-yl)carbamate] | – | – | > 87.4 | > 87.4 |
| CCN(C)c1cc2cc(OC)ccc2c(O[C@@H]2C[C@H]3C(=O)N[C@]4(C(=O)NS(=O)(=O)C5(CF)CC5)C[C@H]4/C=C\CC[C@@H](C)C[C@@H](C)[C@H](NC(=O)OC(C)(C)C(F)(F)F)C(=O)N3C2)n1 [Compound 1137, 1,1,1-trifluoro-2-methylpropan-2-yl((2R,6S,7R,9R,13aS,14aR,16aS,Z)-2-((3-(ethyl(methyl)amino)-6-methoxyisoquinolin-1-yl)oxy)-14a-(((1-(fluoromethyl)cyclopropyl)sulfonyl)carbamoyl)-7,9-dimethyl-5,16-dioxo-1,2,3,5,6,7,8,9,10,11,13a,14,14a,15,16,16a-hexadecahydrocyclopropa[e]pyrrolo[1,2-a][1,4]diazacyclopentadecin-6-yl)carbamate] | – | – | 4.82 to 103 | < 5.46 |
| CCN(C)c1cc2cc(OC)ccc2c(O[C@@H]2C[C@H]3C(=O)N[C@]4(C(=O)NS(=O)(=O)C5(CF)CC5)C[C@H]4/C=C\CC[C@H](C)C[C@@H](C)[C@H](NC(=O)OC(C)(C)C(C)(F)F)C(=O)N3C2)n1 [Compound 1138, 3,3-difluoro-2-methylbutan-2-yl((2R,6S,7R,9S,13aS,14aR,16aS,Z)-2-((3-(ethyl(methyl)amino)-6-methoxyisoquinolin-1-yl)oxy)-14a-(((1-(fluoromethyl)cyclopropyl)sulfonyl)carbamoyl)-7,9-dimethyl-5,16-dioxo-1,2,3,5,6,7,8,9,10,11,13a,14,14a,15,16,16a-hexadecahydrocyclopropa[e]pyrrolo[1,2-a][1,4]diazacyclopentadecin-6-yl)carbamate] | – | – | > 87.4 | > 87.4 |
| CCN(C)c1cc2cc(OC)ccc2c(O[C@@H]2C[C@H]3C(=O)N[C@]4(C(=O)NS(=O)(=O)C5(CF)CC5)C[C@H]4/C=C\CC[C@@H](C)C[C@@H](C)[C@H](NC(=O)OC(C)(C)C(C)(F)F)C(=O)N3C2)n1 [Compound 1139, 3,3-difluoro-2-methylbutan-2-yl((2R,6S,7R,9R,13aS,14aR,16aS,Z)-2-((3-(ethyl(methyl)amino)-6-methoxyisoquinolin-1-yl)oxy)-14a-(((1-(fluoromethyl)cyclopropyl)sulfonyl)carbamoyl)-7,9-dimethyl-5,16-dioxo-1,2,3,5,6,7,8,9,10,11,13a,14,14a,15,16,16a-hexadecahydrocyclopropa[e]pyrrolo[1,2-a][1,4]diazacyclopentadecin-6-yl)carbamate] | – | – | 4.82 to 103 | 4.82 to 103 |
| COc1ccc2c(O[C@@H]3C[C@H]4C(=O)N[C@]5(C(=O)NS(=O)(=O)C6(C)CC6)C[C@H]5/C=C\CC[C@H](C)C[C@@H](C)[C@H](NC(=O)OC5(C(F)(F)F)COC5)C(=O)N4C3)nc(OC)cc2c1 [Compound 1140, 3-(trifluoromethyl)oxetan-3-yl ((2R,6S,7R,9S,13aS,14aR,16aS,Z)-2-((3,6-dimethoxyisoquinolin-1-yl)oxy)-7,9-dimethyl-14a-(((1-methylcyclopropyl)sulfonyl)carbamoyl)-5,16-dioxo-1,2,3,5,6,7,8,9,10,11,13a,14,14a,15,16,16a-hexadecahydrocyclopropa[e]pyrrolo[1,2-a][1,4]diazacyclopentadecin-6-yl)carbamate] | – | – | < 5.46 | < 5.46 |
